Measured values taken from US20030130200A1, “Small peptides and methods for treatment of asthma and inflammation” (Hisatek, LLC, priority 1997, published 2003).
Where no end group is shown, it is not given here. The star is where a group is joined. For = O=C*

Test system: mast cells
Assay: Rat skin model for inhibition of mast cell degranulation induced by Compound 48/80 (area of capillary permeability/bluing)
Assay type: in vivo, rat (male Sprague-Dawley)
Source text: The Rat Skin Model for Determination of Inhibition of Mast Cell Degranulation
Allergy induced asthma results from exposure of substances (allergens) to which an organism has become hypersensitized. Exposure to allergen results in degranulation of mast cells in the lung, releasing leukotrienes and histamines. […] Respiratory symptoms resulting from such an exposure range from mild (itching and sneezing) to potentially fatal (asthma), including in extreme chronic cases death by anaphylaxis.
In this model, the blood plasma of the experimental rat is labeled with the dye trypan blue. This soluble dye is carried in the bloodstream as a passive marker of plasma itself, and is excluded from live cells. Intact blood vessels including the capillary system, retain this dye under normal circumstances. A compound, which induces degranulation of mast cells (resulting in leukotriene and histamine release), is injected into the skin to simulate allergen-induced degranulation. In these experiments, Compound 48/80 was used for this purpose. In the events following leukotriene and histamine release, capillary permeability is increased, and plasma, dyed blue, leaks from capillaries and dyes the skin surrounding the injection site blue. The area of bluing is a measure of the amount of Compound 48/80 injected.
A compound can be tested for “anti-leukotriene” and/or “anti-histamine” activity by mixing it with Compound 48/80 prior to injection.
The rat skin model was undertaken and validated. Various peptides were tested at a predetermined dose for anti-leukotriene and/or anti-histamine activity. The dose selected allowed a general comparison to f-Met-Leu-Phe, which was standard compound for comparison.
A “dose response” titration was performed for some compounds and compared with the standard compound. Observing serial decreases in the size areas of capillary permeability using serially smaller doses of the putative inhibitory compound validates the inhibition of leukotriene and/or histamine release observed in the initial predetermined dose test.
Reagents were obtained from Sigma or Aldrich, with the exception of ketamine, a veterinary anaesthetic that was obtained from various veterinary suppliers. The rats used were male Sprague-Dawley breed, 220-240 g at time of purchase from B&K International.
For the rat skin reaction, rats were anaesthetized with 0.25 ml 10 mg/ml ketamine. 1.0 ml trypan blue in saline (sterile filtered) was administered in a tail vein, and the back of the rat was shaved. Four intradermal injection sites per rat were used for test and control injections.
Compound 48/80 was prepared as a 1.5 mg/ml stock solution in saline. […] Serial dilutions in saline to working levels were prepared just prior to injection of each rat.
Peptides were prepared as a 23 mM stock solution in DMSO, and stored at −20° C. between experiments. At the time of use, the frozen stock solutions were thawed, and appropriate aliquots added to dilutions of Compound 48/80, along with appropriate amounts of DMSO, to result in the ratio of 5 μl DMSO to 0.1 ml aqueous Compound 48/80.
For injections, 0.1 ml Compound […], +/− test compounds were injected intradermally into anaesthetized, dyed, and shaved rats. Following a 15 minute incubation, the rats were sacrificed by cervical dislocation and the back skin was evulsed and placed on a light box. An image of the backlit skin was digitized using a CCD video capture camera and compatible hardware/software. The digitized image was analyzed using a scientific graphics analysis software package, and the areas of capillary permeability (bluing) were integrated and digital values were obtained for further analysis.
A dose response curve was generated using Compound 48/80 at various doses from ca. 0.01 μg through ca 15 μg. […] A dose of 0.15 μg of Compound 48/80 was selected for conducting further tests.
A dose response curve was prepared for the standard compound, f-Met-Leu-Phe, using the selected dose of 0.15 μg Compound 48/80. […]

Substance: f-Met-Leu-Phe-Phe (For-MLFF) [Example 9]
- Inhibition of degranulation induced by Compound 48/80, dose response curve (doses of 0 to about 230 nM peptide, 0.15 μg Compound 48/80 (FIG. 2, FIG. 3)): Surprisingly remarkable inhibition of degranulation induced by Compound 48/80 was clearly shown
- % Degranulation (percent mast cell degranulation produced by 48/80, 100 nanomoles peptide, 0.15 μg Compound 48/80): 1-3%
